Results as given in patent US11958861B2, “Spirocyclic lactams as JAK2 V617F inhibitors” (Incyte Corporation, priority 2021, dated 2024).
Structures can show the parent of a compound that is named as a salt.

Experiments:
[1] = molecular target: T1, pseudo-kinase domain (JH2, amino-acids 536-812) of human V617F mutant JAK2 (Homo sapiens, UniProt O60674, F794H/V617F/W659A/W777A); assay: JAK2 LanthaScreen JH2-V617F Binding Assay; details: 1 hour at 25° C.
T1 construct: pseudo-kinase domain (JH2, amino-acids 536-812 with 3 surface mutations W659A, W777A, F794H); purchased BPS Bioscience 79498; host or cells: baculovirus expression system
Procedure: Example C. JAK2 LanthaScreen JH2-V617F Binding Assay
(§1) JAK2 JH2-V617F binding assay utilizes pseudo-kinase domain (JH2, amino-acids 536-812 with 3 surface mutations W659A, W777A, F794H) of human V617F mutant JAK2 expressed as C-terminal His-Avi-tagged, biotinylated protein in a baculovirus expression system (BPS Bioscience, Catalog #79498). The assay was conducted in black 384-well polystyrene plates in a final reaction volume of 20 μL. JAK2 JH2-V617F (0.26 nM) was incubated with compounds (100 nL serially diluted in DMSO) in the presence of 50 nM Fluorescent JAK2-JH2 Tracer (MedChem Express Catalog #HY-102055) and 0.25 nM Streptavidin-Tb cryptate (Cisbio Part #610SATLB) in assay buffer (50 mM Tris, pH=7.5, 10 mM MgCl2, 0.01% Brij-35, 0.1% BSA, 1 mM EGTA, 5% Glycerol and 5 mM DTT). Non-specific binding was accessed in the presence of 2 mM ATP. After incubation for 1 hour at 25° C., LanthaScreen signals were read on a PHERAstar FS plate reader (BMG LABTECH). Data was analyzed with IDBS XLfit and GraphPad Prism 5.0 software using a four parameter dose response curve to determine IC50 for each compound.

[2] = molecular target: T2, catalytic domain (JH1, amino acids 808-1132) of human JAK2 (Homo sapiens, UniProt O60674); assay: JAK2 HTRF Enzyme Activity Assay; format: biochemical; details: ATP 30 μM, read-out: ENZ 30UMATP
T2 construct: catalytic domain (JH1, amino acids 808-1132) of human JAK2; His (N); purchased BPS Bioscience 40450; host or cells: baculovirus expression system
Procedure: Example D. JAK2 HTRF Enzyme Activity Assay
JAK2 enzyme activity assays utilize catalytic domain (JH1, amino acids 808-1132) of human JAK2 expressed as N-terminal His-tagged protein in a baculovirus expression system (BPS Bioscience, Catalog #40450). The assays was conducted in black 384-well polystyrene plates in a final reaction volume of 20 μL. JAK2 (0.015 nM) was incubated with compounds (100 nL serially diluted in DMSO) in the presence of ATP (30 μM or 1 mM) and 500 nM Biotin-labeled […] (SEQ ID NO.: 1) peptide (BioSource International, custom synthesis) in assay buffer (50 mM Tris, pH=7.5, 10 mM MgCl2, 0.01% Brij-35, 0.1% BSA, 1 mM EGTA, 5% Glycerol and 5 mM DTT) for 60 minutes at 25° C. The reactions were stopped by the addition of 10 μL of detection buffer (50 mM Tris, pH 7.8, 0.5 mg/mL BSA, 150 mM NaCl), supplemented with EDTA, LANCE Eu-W1024 anti-phosphotyrosine (PY20), (PerkinElmer, Catalog #AD0067) and Streptavidin SureLight APC (PerkinElmer Catalog #CR130-100), for a final concentration of 15 mM, 1.5 nM and 75 nM, respectively. HTRF signals were read after 30 minutes incubation at room temperature on a PHERAstar FS plate reader (BMG LABTECH). Data was analyzed with IDBS XLfit and GraphPad Prism 5.0 software using a four parameter dose response curve to determine IC50 for each compound.

[3] = molecular target: T3, catalytic domain (JH1, amino acids 826-1132) of human JAK2 (Homo sapiens, UniProt O60674); assay: JAK2 LanthaScreen JH1 Binding Assay; details: 2 hours at 25° C.
T3 construct: catalytic domain (JH1, amino acids 826-1132) of human JAK2; purchased Carna Biosciences 08-445-20N; host or cells: baculovirus expression system
Procedure: Example A. JAK2 LanthaScreen JH1 Binding Assay
JAK2 JH1 binding assay utilizes catalytic domain (JH1, amino acids 826-1132) of human JAK2 expressed as N-terminal FLAG-tagged, biotinylated protein in a baculovirus expression system (Carna Biosciences, Product #08-445-20N). The assay was conducted in black 384-well polystyrene plates in a final reaction volume of 20 μL. JAK2 JH1 (1.5 nM) was incubated with compounds (100 nL serially diluted in DMSO) in the presence of 50 nM Fluorescent JAK2-JH1 Tracer and 0.5 nM Streptavidin-Tb cryptate (Cisbio Part #610SATLB) in assay buffer (50 mM Tris, pH=7.5, 10 mM MgCl2, 0.01% Brij-35, 0.1% BSA, 1 mM EGTA, 5% Glycerol and 5 mM DTT). Non-specific binding was accessed in the presence of 2 mM ATP. After incubation for 2 hours at 25° C., LanthaScreen signals were read on a PHERAstar FS plate reader (BMG LABTECH). Data was analyzed with IDBS XLfit and GraphPad Prism 5.0 software using a four parameter dose response curve to determine IC50 for each compound.

[4] = molecular target: T4, pseudo-kinase domain (JH2, amino-acids 536-812) of human Wild Type JAK2 (Homo sapiens, UniProt O60674, F794H/W659A/W777A); assay: JAK2 LanthaScreen JH2-WT Binding Assay; details: 1 hour at 25° C.
T4 construct: pseudo-kinase domain (JH2, amino-acids 536-812 with 3 surface mutations W659A, W777A, F794H); purchased BPS Bioscience 79463; host or cells: baculovirus expression system
Procedure: Example B. JAK2 LanthaScreen JH2-WT Binding Assay
as §1, with “JH2-WT” for “JH2-V617F”, “Wild Type” for “V617F mutant”, “#79463).” for “#79498).”, “JH2-WT (0.145” for “JH2-V617F (0.26”

T1 sequence (O60674 536-812 V617F/W659A/W777A/F794H): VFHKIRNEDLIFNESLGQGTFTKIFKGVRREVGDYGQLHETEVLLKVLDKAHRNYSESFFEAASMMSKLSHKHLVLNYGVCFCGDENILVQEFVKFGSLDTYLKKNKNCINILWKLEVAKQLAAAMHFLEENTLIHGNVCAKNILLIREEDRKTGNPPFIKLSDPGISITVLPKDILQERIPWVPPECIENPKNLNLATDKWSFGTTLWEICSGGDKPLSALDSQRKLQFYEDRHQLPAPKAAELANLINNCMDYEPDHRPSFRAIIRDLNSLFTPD
T4 sequence (O60674 536-812 W659A/W777A/F794H): as the sequence (O60674 536-812 V617F/W659A/W777A/F794H) above, with F82V counted along it
T3 sequence (O60674 826-1132): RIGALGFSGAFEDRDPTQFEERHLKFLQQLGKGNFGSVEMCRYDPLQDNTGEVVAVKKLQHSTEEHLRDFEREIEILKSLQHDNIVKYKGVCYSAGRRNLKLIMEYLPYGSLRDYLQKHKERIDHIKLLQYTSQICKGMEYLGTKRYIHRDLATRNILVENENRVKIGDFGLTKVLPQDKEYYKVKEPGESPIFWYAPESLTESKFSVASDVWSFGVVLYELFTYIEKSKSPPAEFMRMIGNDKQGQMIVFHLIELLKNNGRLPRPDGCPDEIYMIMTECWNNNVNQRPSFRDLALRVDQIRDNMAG
T2 sequence (O60674 808-1132): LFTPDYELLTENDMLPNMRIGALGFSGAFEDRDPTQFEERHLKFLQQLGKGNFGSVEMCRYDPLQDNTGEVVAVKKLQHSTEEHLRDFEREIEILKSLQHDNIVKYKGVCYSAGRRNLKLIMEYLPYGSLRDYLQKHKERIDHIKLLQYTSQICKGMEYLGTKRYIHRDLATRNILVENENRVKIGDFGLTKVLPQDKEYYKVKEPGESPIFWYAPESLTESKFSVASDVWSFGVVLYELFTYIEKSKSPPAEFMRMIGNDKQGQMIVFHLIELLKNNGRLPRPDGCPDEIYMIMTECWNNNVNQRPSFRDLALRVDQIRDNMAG

SMILES	IC50 [1] [µM]	IC50 [2] [µM]	IC50 [3] [µM]	IC50 [4] [µM]
CN1C(=O)C2(CC3CCC(C2)N3c2ccncn2)c2c1cnc1[nH]c(-c3ccc(CN4CCC(S(C)(=O)=O)CC4)cc3)c(-c3ccccc3)c21 [Example 16, (1R,3r,5S)-6′-Methyl-2′-((4(4-(methylsulfonyl)piperidin-1-yl)methyl)phenyl)-1′-phenyl-8-(pyrimidin-4-yl)-3′,6′-dihydro-7′H-8-azaspiro[bicyclo[3.2.1]octane-3,8′-dipyrrolo[2,3-b:3′,2′-d]pyridin]-7′-one, trifluoroacetate salt]	≤ 0.1	> 2.5	> 2.5	≤ 0.1
COCCn1cc(-c2[nH]c3ncc4c(c3c2-c2ccc3c(cnn3C)c2)C2(CCN(C3(CC#N)CCC3)CC2)C(=O)N4C)cn1 [Example 36, 2-(1-(2-(1-(2-Methoxyethyl)-1H-pyrazol-4-yl)-6-methyl-1-(1-methyl-1H-indazol-5-yl)-7-oxo-6,7-dihydro-3H-spiro[dipyrrolo[2,3-b:3′,2′-d]pyridine-8,4′-piperidin]-1′-yl)cyclobutyl)acetonitrile, trifluoroacetate salt]	≤ 0.1	0.1 to 0.5	0.1 to 0.5	≤ 0.1
COCCS(=O)(=O)N1CCC2(CC1)CC1(C2)C(=O)N(C)c2cnc3[nH]c(-c4cnn(C)c4)c(-c4ccccc4)c3c21 [Example 62, 1″-((2-Methoxyethyl)sulfonyl)-6-methyl-2-(1-methyl-1H-pyrazol-4-yl)-1-phenyl-3,6-dihydro-7H-dispiro[dipyrrolo[2,3-b:3′,2′-d]pyridine-8,1′-cyclobutane-3′,4″-piperidin]-7-one, trifluoroacetate salt]	≤ 0.1	> 2.5	> 2.5	≤ 0.1
CC(=O)N1C2CCC1CC1(C2)C(=O)N(C)c2cnc3[nH]c(-c4ccc(CN5CCC(S(C)(=O)=O)CC5)cc4)c(-c4ccccc4)c3c21 (stereo not drawn) [Example 13, 8-Acetyl-6′-methyl-2′-((4(4-(methylsulfonyl)piperidin-1-yl)methyl)phenyl)-1′-phenyl-3′,6′-dihydro-7′H-8-azaspiro[bicyclo[3.2.1]octane-3,8′-dipyrrolo[2,3-b:3′,2′-d]pyridin]-7′-one trifluoroacetate salt]	0.1 to 0.5	1.25 to 2.5	1.25 to 2.5	≤ 0.1
CN1C(=O)C2(CCN(C3(CC#N)CCC3)CC2)c2c1cnc1[nH]c(-c3cnn(CC(C)(C)O)c3)c(-c3ccc(OC(F)(F)F)cc3)c21 [Example 50, 2-(1-(2-(1-(2-Hydroxy-2-methylpropyl)-1H-pyrazol-4-yl)-6-methyl-7-oxo-1-(4-(trifluoromethoxy)phenyl)-6,7-dihydro-3H-spiro[dipyrrolo[2,3-b:3′,2′-d]pyridine-8,4′-piperidin]-1′-yl)cyclobutyl)acetonitrile, trifluoroacetate salt]	≤ 0.1	> 2.5	> 2.5	≤ 0.1
CCCC(=O)N1CCC2(CC1)CC1(C2)C(=O)N(C)c2cnc3[nH]c(-c4cnn(C)c4)c(-c4ccc5c(cnn5C)c4)c3c21 [Example 59, 1″-Butyryl-6-methyl-1-(1-methyl-1H-indazol-5-yl)-2-(1-methyl-1H-pyrazol-4-yl)-3,6-dihydro-7H-dispiro[dipyrrolo[2,3-b:3′,2′-d]pyridine-8,1′-cyclobutane-3′,4″-piperidin]-7-one, trifluoroacetate salt]	≤ 0.1	1.25 to 2.5	1.25 to 2.5	≤ 0.1
CCS(=O)(=O)N1CC2(C1)CC1(C2)C(=O)N(C)c2cnc3[nH]c(-c4cnn(CCOC)c4)c(-c4ccc5c(cnn5C)c4)c3c21 [Example 88, 1-(Ethylsulfonyl)-2″-(1-(2-methoxyethyl)-1H-pyrazol-4-yl)-6″-methyl-1″-(1-methyl-1H-indazol-5-yl)-3″,6″-dihydro-7″H-dispiro[azetidine-3,1′-cyclobutane-3′,8″-dipyrrolo[2,3-b:3′,2′-d]pyridin]-7″-one, trifluoroacetate salt]	≤ 0.1	1.25 to 2.5	1.25 to 2.5	≤ 0.1
CN1C(=O)C2(CCN(C3(CC#N)CCC3)CC2)c2c1cnc1[nH]c(-c3cnn(CC4CC4)c3)c(-c3ccc4c(cnn4C)c3)c21 [Example 39, 2-(1-(2-(1-(Cyclopropylmethyl)-1H-pyrazol-4-yl)-6-methyl-1-(1-methyl-1H-indazol-5-yl)-7-oxo-6,7-dihydro-3H-spiro[dipyrrolo[2,3-b:3′,2′-d]pyridine-8,4′-piperidin]-1′-yl)cyclobutyl)acetonitrile, trifluoroacetate salt]	≤ 0.1	0.1 to 0.5	0.1 to 0.5	≤ 0.1
COC(=O)N1CC2(N3CCC4(CC3)C(=O)N(C)c3cnc5[nH]c(-c6cnn(C)c6)c(-c6ccc7c(cnn7C)c6)c5c34)CC1C2 [Example 83, Methyl 4-(6-methyl-1-(1-methyl-1H-indazol-5-yl)-2-(1-methyl-1H-pyrazol-4-yl)-7-oxo-6,7-dihydro-3H-spiro[dipyrrolo[2,3-b:3′,2′-d]pyridine-8,4′-piperidin]-1′-yl)-2-azabicyclo[2.1.1]hexane-2-carboxylate]	≤ 0.1	1.25 to 2.5	1.25 to 2.5	≤ 0.1
